According to ChEMBL document CHEMBL1201862, “PubChem BioAssay data set” (2004):
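1) Cells in 96-well plates. 2) Compound, 48 h, 5 concentrations. 3) Linear interpolation between surrounding doses. 4) Unreached endpoint = highest concentration. At the GI50, growth is halved.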 Active and inactive are the calls of the source. Cut-off read from the data, not from the text of the source: active = GI50 up to about 1.1 µM and inactive = higher.

Legend:
Test in all cases: NCI tumour cell line growth inhibition, 48 h
SNB-75 = tested on: SNB-75
EKVX = tested on: EKVX
A498 = tested on: A498
NCI-H226 = tested on: NCI-H226
SF-268 = tested on: SF-268
OVCAR-8 = tested on: OVCAR-8
SF-295 = tested on: SF-295
TK-10 = tested on: TK-10
CCRF-CEM = tested on: CCRF-CEM
HCT-15 = tested on: HCT-15
NCI-H460 = tested on: NCI-H460
RXF 393 = tested on: RXF 393
HT-29 = tested on: HT-29
HOP-62 = tested on: HOP-62
LOX IMVI = tested on: LOX IMVI
OVCAR-3 = tested on: OVCAR-3
HOP-92 = tested on: HOP-92
IGROV-1 = tested on: IGROV-1

Compound	GI50 (SNB-75)	GI50 (EKVX)	GI50 (A498)	GI50 (NCI-H226)	GI50 (SF-268)	GI50 (OVCAR-8)	GI50 (SF-295)	GI50 (TK-10)	GI50 (CCRF-CEM)	GI50 (HCT-15) [µM]	GI50 (NCI-H460)	GI50 (RXF 393)	GI50 (HT-29)	GI50 (HOP-62)	GI50 (LOX IMVI)	GI50 (OVCAR-3)	GI50 (HOP-92)	GI50 (IGROV-1)
Cc1oc2c(C)c3oc(=O)cc(C)c3cc2c1CN	33.9 µM (inactive)	42.6 µM (inactive)	41.5 µM (inactive)	34.4 µM (inactive)	31 µM (inactive)	40.6 µM (inactive)	38 µM (inactive)	27.8 µM (inactive)	41.9 µM (inactive)	36.9	27.9 µM (inactive)	15.9 µM (inactive)	31.9 µM (inactive)	38.8 µM (inactive)	16.2 µM (inactive)	61.4 µM (inactive)		
O=[N+]([O-])c1ccc(CNC2=NNS(=O)(=O)c3ccccc32)cc1		> 100 µM (inactive)	32.1 µM (inactive)	> 100 µM (inactive)	> 100 µM (inactive)	> 100 µM (inactive)	> 100 µM (inactive)		19.5 µM (inactive)	75.5	> 100 µM (inactive)	> 100 µM (inactive)	> 100 µM (inactive)		54 µM (inactive)	> 100 µM (inactive)	> 100 µM (inactive)	> 100 µM (inactive)
O=C1C(c2ccccc2)=C(O)c2cccc3cccc1c23	40.3 µM (inactive)	> 100 µM (inactive)	> 100 µM (inactive)	88.9 µM (inactive)	> 100 µM (inactive)	> 100 µM (inactive)	> 100 µM (inactive)	> 100 µM (inactive)	> 100 µM (inactive)	> 100	> 100 µM (inactive)	> 100 µM (inactive)	> 100 µM (inactive)		> 100 µM (inactive)	47.4 µM (inactive)	29 µM (inactive)	> 100 µM (inactive)
O=C1C(=O)N(C(=O)c2ccc(Cl)c(Cl)c2)c2ccc(Cl)cc21	31.8 µM (inactive)	74 µM (inactive)	19.4 µM (inactive)	> 100 µM (inactive)	> 100 µM (inactive)	> 100 µM (inactive)	> 100 µM (inactive)	> 100 µM (inactive)	38.8 µM (inactive)		89.7 µM (inactive)	> 100 µM (inactive)	> 100 µM (inactive)		44.9 µM (inactive)	56.6 µM (inactive)		> 100 µM (inactive)
CCN(CC)CC1CCCCN1CC(=O)N1CC(C)C(=O)Nc2ccccc21 (centres undefined)			> 100 µM (inactive)	> 100 µM (inactive)	> 100 µM (inactive)		> 100 µM (inactive)		> 100 µM (inactive)	> 100	> 100 µM (inactive)		> 100 µM (inactive)	> 100 µM (inactive)	> 100 µM (inactive)	> 100 µM (inactive)	> 100 µM (inactive)	> 100 µM (inactive)
Cc1nc(Nc2nnc(-c3cc([N+](=O)[O-])cc([N+](=O)[O-])c3C)o2)sc1C(=O)CC(=O)Cc1nc2ccc(Cl)cc2nc1O	> 100 µM (inactive)	37.3 µM (inactive)	> 100 µM (inactive)	> 100 µM (inactive)	> 100 µM (inactive)	> 100 µM (inactive)	> 100 µM (inactive)	> 100 µM (inactive)	> 100 µM (inactive)	> 100	> 100 µM (inactive)	> 100 µM (inactive)	> 100 µM (inactive)	> 100 µM (inactive)	> 100 µM (inactive)		> 100 µM (inactive)	> 100 µM (inactive)
O=C(c1ccco1)N(C(=S)N1CCN(c2ccccc2)CC1)C1CCCCC1	50.5 µM (inactive)				> 100 µM (inactive)	> 100 µM (inactive)	79.8 µM (inactive)	> 100 µM (inactive)	> 100 µM (inactive)	94.6	76 µM (inactive)	52.6 µM (inactive)	63.5 µM (inactive)	> 100 µM (inactive)	57.3 µM (inactive)	> 100 µM (inactive)	> 100 µM (inactive)	> 100 µM (inactive)
COc1cc(-c2ccccc2)c(OC)cc1CCl	> 100 µM (inactive)	> 100 µM (inactive)	> 100 µM (inactive)	> 100 µM (inactive)	> 100 µM (inactive)	> 100 µM (inactive)	> 100 µM (inactive)	> 100 µM (inactive)	> 100 µM (inactive)	> 100	> 100 µM (inactive)	> 100 µM (inactive)	> 100 µM (inactive)	> 100 µM (inactive)		> 100 µM (inactive)		> 100 µM (inactive)
COc1ccc(/C=C/C(=O)c2cc(C(=O)O)c(OC)cc2OC)cc1OC	> 100 µM (inactive)	> 100 µM (inactive)	> 100 µM (inactive)	> 100 µM (inactive)	> 100 µM (inactive)	> 100 µM (inactive)	> 100 µM (inactive)		> 100 µM (inactive)	> 100	> 100 µM (inactive)		> 100 µM (inactive)	> 100 µM (inactive)	> 100 µM (inactive)		> 100 µM (inactive)	> 100 µM (inactive)
